In US8283479B2, “CXCR2 inhibitors” (Sanofi-Aventis Deutschland GmbH, priority 2004, dated 2012):

What follows are compounds tested against T1, human CXCR2 (Homo sapiens, UniProt P25025) (assay: CXCR2 inhibition: calcium fluorescence assay (FLIPR)). Details: CHO-K1 cells stably transfected with human CXCR2 and Gα16; Fluo-4; % inhibition of calcium response to chemokine (10-100 nM).
T1 construct: expressed in transfected cells; host or cells: CHO-K1
T1 sequence (P25025 1-360): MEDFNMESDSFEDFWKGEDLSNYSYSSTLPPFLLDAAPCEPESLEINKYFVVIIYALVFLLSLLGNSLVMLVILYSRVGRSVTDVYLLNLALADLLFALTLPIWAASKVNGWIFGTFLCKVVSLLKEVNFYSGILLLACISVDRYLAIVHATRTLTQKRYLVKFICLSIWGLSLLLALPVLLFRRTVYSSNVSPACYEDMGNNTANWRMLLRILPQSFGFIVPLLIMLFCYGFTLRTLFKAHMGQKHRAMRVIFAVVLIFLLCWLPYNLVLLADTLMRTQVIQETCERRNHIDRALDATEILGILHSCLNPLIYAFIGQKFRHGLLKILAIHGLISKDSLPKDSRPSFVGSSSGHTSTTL
Format: cell-based
Text: Determination of CXCR2 Inhibition: Calcium Fluorescence Assay (FLIPR)
The assay is based on the detection of intracellular calcium changes detected by the selective, calcium-chelating dye, Fluo-4 (Molecular Probes). A large fluorescence intensity increase is observed upon calcium association with Fluo-4. The dye is delivered to the cell interior using an acetoxymethylester form of Fluo-4, where the intracellular esterase activity results in the charged species being released and trapped within the cytoplasm of the cell. […] By co-expressing the CXCR2 receptor and the promiscuous Gα16 protein, activation of this chemokine receptor is directed into this phospholipase C cascade resulting in intracellular calcium mobilization.
The CHO—K1 cells stably transfected with human CXCR2 and the promiscuous Gα16 protein were maintained in a log phase of growth at 37° C. and 5% CO2 in the following media: Iscove's, 10% FBS, 1× Penicillin-Streptomycin, 400 μg/mL G418 and 350 μg/mL Zeocin. Approximately 24-48 hours prior to the assay, 20,000-30,000 cells/well were plated onto a 96-well black/clear bottomed assay plate (Becton Dickinson) with a well volume of 180 μl. For dye-loading the culture medium was carefully removed and replaced by 100 μl/well dye solution (4 μM Fluo-4 in 135 mM NaCl, 5 mM KCl, 1 mM magnesium sulphate, 5 mM glucose, 20 mM Hepes, 2.5 mM probenecid; pH 7.4). Cells were incubated for 1 h at 37° C., and then washed 3× with buffer. After washing 90 μl buffer/well were left. Increasing concentrations of compound was added in 45 μl buffer (4× concentrated) followed by 10 min incubation at 37° C. Then the chemokine (10-100 nM) was applied in 45 μl buffer (4× concentrated) and the measurement performed for 2 min. The IC50 value of a compound was determined by calculation of % inhibition of total calcium response to the chemokine.
Compound CCC(C)(NC(=O)c1ccc2ccccc2c1OCc1cc2ccccc2s1)C(=O)O (centres unmarked) [Example 74, 2-{[1-(Benzo[b]thiophen-2-ylmethoxy)-naphthalene-2-carbonyl]-amino}-2-methyl-butyric acid] has an IC50 of 980 nM. Work on CC(C)(NC(=O)c1cc(Br)c2ccccc2c1OCc1ccc(OC(F)(F)F)cc1)C(=O)O [Example 42, 2-{[4-Bromo-1-(4-trifluoromethoxy-benzyloxy)-naphthalene-2-carbonyl]-amino}-2-methyl-propionic acid] yielded an IC50 of 972 nM. With CC(C)(NC(=O)c1ccc2ccccc2c1OCc1ccc2nonc2c1)C(=O)O [Example 5, 2-{[1-(Benzo[1,2,5]oxadiazol-5-ylmethoxy)-naphthalene-2-carbonyl]-amino}-2-methyl-propionic acid] the IC50 was 3210 nM. In the case of CCC(C)(NC(=O)c1ccc2ccccc2c1OCc1ccc(OC(F)(F)F)c(Cl)c1)C(=O)O (centres unmarked) [Example 105, 2-{[1-(3-Chloro-4-trifluoromethoxy-benzyloxy)-naphthalene-2-carbonyl]-amino}-2-methyl-butyric acid], the IC50 is reported as 1620 nM. Work on CC(C)C(C)(NC(=O)c1sc2ccccc2c1OCc1ccc(C(F)(F)F)cc1)C(=O)O (centres unmarked) [Example 131, 2,3-Dimethyl-2-{[3-(4-trifluoromethyl-benzyloxy)-benzo[b]thiophene-2-carbonyl]-amino}-butyric acid] yielded an IC50 of 200 nM. CC(NC(=O)c1ccc2ccccc2c1OCc1ccc(C(F)(F)F)cc1)C(=O)O (centres unmarked) [Example 110, 2-{[1-(4-Trifluoromethyl-benzyloxy)-naphthalene-2-carbonyl]-amino}-propionic acid] gave an IC50 of 700 nM. In the case of O=C(NC1(C(=O)O)CCCC1)c1ccc2ccccc2c1OCc1ccc(C(F)(F)F)cc1 [Example 127, 1-{[1-(4-Trifluoromethyl-benzyloxy)-naphthalene-2-carbonyl]-amino}-cyclopentanecarboxylic acid], the IC50 is reported as 996 nM. In the case of CC(C)(NC(=O)c1sc2ccccc2c1OCc1ccc(C(F)(F)F)nc1)C(=O)O [Example 120, 2-Methyl-2-{[3-(6-trifluoromethyl-pyridin-3-ylmethoxy)-benzo[b]thiophene-2-carbonyl]-amino}-propionic acid], the IC50 is reported as 4440 nM.
